In ChEMBL document CHEMBL5653631, “A Potent and Selective ULK1 Inhibitor Suppresses Autophagy and Sensitizes Cancer Cells to Nutrient Stress” (iScience, 2018):

Columns and labels:
[1] = biological target: Serine/threonine-protein kinase PAK 4 (Homo sapiens) (UniProt O96013); test: Inhibition of human recombinant PAK4 at 500 nM in presence of ATP by radiometric assay relative to control
[2] = biological target: T1, Serine/threonine-protein kinase Nek1 (Homo sapiens) (UniProt Q96PY6); test: Inhibition of human recombinant NEK1 at 500 nM related to control ULK1
T1 sequence (whole entry): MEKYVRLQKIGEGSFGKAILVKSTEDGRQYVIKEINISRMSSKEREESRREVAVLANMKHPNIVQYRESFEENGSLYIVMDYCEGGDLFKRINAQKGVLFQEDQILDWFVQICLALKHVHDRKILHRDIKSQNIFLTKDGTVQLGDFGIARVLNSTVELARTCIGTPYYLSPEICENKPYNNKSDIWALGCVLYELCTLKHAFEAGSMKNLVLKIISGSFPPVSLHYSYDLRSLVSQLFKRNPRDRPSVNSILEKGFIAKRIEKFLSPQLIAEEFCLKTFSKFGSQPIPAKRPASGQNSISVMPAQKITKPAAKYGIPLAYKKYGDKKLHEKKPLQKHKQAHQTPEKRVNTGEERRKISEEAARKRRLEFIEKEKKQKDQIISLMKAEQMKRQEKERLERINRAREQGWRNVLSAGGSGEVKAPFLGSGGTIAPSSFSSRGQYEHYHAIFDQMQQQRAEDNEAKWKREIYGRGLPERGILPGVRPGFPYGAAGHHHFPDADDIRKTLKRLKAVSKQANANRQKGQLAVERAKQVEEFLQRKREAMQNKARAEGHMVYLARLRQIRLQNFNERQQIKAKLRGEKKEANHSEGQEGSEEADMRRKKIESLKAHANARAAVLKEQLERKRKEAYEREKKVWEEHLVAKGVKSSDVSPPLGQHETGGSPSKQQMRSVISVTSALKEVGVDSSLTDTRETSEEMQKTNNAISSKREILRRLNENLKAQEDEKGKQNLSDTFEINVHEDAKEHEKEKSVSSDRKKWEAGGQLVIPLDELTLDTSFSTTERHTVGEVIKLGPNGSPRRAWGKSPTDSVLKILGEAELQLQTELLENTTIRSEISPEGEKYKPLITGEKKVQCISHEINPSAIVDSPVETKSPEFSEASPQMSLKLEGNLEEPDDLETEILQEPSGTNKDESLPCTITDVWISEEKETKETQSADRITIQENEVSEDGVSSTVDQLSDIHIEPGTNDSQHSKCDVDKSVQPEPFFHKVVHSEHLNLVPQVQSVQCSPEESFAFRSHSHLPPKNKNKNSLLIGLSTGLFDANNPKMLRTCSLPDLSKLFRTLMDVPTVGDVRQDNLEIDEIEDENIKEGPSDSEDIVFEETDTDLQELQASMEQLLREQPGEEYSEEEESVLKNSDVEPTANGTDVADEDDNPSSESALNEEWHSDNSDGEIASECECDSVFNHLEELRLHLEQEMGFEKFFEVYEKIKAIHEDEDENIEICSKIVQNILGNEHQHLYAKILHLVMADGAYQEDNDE

[3] = biological target: Ephrin type-A receptor 2 (Homo sapiens) (UniProt P29317); test: Inhibition of human recombinant EphA2 at 40 nM related to control ULK1
Sequence of Ephrin type-A receptor 2 (Homo sapiens) (P29317 whole entry): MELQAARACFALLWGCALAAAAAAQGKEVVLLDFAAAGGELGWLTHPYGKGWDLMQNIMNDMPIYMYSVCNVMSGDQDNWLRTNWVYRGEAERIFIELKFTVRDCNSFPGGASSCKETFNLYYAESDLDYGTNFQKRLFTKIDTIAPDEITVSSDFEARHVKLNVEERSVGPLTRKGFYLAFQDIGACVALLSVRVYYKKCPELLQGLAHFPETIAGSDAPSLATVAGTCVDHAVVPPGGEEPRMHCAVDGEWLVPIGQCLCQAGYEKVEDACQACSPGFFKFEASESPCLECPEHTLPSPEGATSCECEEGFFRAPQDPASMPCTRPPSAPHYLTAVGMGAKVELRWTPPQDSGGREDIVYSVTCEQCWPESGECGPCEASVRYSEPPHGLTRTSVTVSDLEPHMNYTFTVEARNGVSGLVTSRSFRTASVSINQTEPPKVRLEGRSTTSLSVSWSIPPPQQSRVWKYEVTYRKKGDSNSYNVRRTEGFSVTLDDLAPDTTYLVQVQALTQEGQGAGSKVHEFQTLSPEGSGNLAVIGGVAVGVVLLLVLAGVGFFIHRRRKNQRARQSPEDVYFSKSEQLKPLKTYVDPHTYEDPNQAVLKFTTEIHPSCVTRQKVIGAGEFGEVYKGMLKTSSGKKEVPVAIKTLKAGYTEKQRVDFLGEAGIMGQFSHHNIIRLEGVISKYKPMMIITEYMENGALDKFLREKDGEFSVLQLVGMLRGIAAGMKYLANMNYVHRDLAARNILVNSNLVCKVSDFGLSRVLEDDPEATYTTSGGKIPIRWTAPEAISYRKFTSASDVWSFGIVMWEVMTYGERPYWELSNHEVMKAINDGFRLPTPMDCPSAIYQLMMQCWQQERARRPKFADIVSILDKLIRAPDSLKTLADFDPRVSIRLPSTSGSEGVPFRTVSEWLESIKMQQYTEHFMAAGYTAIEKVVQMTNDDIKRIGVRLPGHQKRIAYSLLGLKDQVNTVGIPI

[4] = biological target: T2, Tyrosine-protein kinase JAK3 (Homo sapiens) (UniProt P52333); test: Inhibition of human recombinant JAK3 at 40 nM related to control ULK1
T2 sequence (whole entry): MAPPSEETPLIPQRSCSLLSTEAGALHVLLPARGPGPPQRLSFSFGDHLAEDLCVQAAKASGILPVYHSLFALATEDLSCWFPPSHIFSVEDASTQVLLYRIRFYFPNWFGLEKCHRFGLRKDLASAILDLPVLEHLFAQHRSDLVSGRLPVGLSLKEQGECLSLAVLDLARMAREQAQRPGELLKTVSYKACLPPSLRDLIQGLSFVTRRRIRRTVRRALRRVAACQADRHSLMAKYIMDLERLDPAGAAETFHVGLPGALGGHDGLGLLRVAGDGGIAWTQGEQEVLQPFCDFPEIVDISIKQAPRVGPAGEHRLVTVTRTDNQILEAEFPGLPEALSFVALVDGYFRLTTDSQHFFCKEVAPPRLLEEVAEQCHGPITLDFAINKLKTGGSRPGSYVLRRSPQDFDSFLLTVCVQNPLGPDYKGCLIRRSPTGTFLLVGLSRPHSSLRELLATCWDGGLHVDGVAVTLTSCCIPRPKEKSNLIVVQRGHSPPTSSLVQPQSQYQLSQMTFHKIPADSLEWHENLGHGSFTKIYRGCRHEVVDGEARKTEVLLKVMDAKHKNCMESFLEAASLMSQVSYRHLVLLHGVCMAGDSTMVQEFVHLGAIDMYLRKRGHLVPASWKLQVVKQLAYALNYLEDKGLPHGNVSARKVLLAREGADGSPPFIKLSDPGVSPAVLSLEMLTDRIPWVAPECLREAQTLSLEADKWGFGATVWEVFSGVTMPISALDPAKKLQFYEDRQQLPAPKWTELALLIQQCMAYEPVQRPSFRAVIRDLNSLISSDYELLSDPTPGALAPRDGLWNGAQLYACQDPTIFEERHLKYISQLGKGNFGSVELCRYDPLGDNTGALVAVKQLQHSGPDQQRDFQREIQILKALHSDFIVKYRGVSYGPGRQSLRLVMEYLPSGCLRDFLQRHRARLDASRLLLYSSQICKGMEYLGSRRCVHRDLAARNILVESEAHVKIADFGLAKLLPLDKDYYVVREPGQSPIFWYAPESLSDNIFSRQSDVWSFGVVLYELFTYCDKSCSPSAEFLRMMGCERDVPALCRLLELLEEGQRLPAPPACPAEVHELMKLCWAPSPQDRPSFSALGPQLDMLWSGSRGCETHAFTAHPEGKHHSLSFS

Sequence of Serine/threonine-protein kinase PAK 4 (Homo sapiens) (O96013 whole entry, looked up): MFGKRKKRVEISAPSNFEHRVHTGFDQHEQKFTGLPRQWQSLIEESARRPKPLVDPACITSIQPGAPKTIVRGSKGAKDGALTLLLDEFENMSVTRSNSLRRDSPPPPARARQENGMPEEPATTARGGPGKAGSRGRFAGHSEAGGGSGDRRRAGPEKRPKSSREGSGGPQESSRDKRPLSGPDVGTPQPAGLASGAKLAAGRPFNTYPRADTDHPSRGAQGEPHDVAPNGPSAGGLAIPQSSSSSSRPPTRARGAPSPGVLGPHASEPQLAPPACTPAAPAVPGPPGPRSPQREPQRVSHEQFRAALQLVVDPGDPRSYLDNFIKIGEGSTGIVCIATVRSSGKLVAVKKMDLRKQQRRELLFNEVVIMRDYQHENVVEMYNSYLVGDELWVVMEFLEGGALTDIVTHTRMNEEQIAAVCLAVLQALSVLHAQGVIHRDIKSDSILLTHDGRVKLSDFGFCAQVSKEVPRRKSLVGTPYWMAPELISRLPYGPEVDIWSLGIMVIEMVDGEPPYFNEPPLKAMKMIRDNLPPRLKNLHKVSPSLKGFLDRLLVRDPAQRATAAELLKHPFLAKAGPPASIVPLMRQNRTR

inhibition [1] [%] | fold change (FC) [2] | fold change (FC) [3] | fold change (FC) [4] | SMILES
41 | 0.11 |  |  | CNC(=O)c1ccccc1Oc1nc(Nc2cc(OC)c(OC)c(OC)c2)ncc1Br
 |  | 0.03 | 0 | O=C(N[C@@H](C1CC1)C(F)(F)F)c1cc(-c2cnn3cc(-c4ccc(F)cc4)cnc23)cs1
